Patent US20110098177A1, “METHODS AND COMPOSITIONS OF PLANT MICRONUTRIENTS” (NOVUS INTERNATIONAL INC., priority 2006, published 2011)
Entries after “also recorded” stand apart in the source; their conditions may differ.

Experiments:
Format in all cases: in vivo
Tygress tomato plants [1] = assay: Foliar nutrient concentration 2 weeks after treatment, greenhouse tomato (Examples 4-6); settings: Mn 2.0 lb/acre
Protocol: (§1) The following experiments were performed in a green house during the fall of 2008 and spring of 2009 at GCREC, Balm, University of Florida. Crop set-up, procedures and variables were as follows.
(§2) Transplants of Tygress' tomato plants were planted in 2-gallon pots filled with commercial planting medium with nutrient concentration of Fe, Zn, Mn, Cu being negligible and insufficient for crop growth. Irrigation and non-micronutrient fertilizer were provided daily through microsprinklers at recommended rates for tomato production in Florida. No pesticides were used. Treatments were as described in Tables 4, 5 and 6 below.
(§3) Treatments were applied at 5 WAT (weeks after transplanting) using a water volume of 200 mL/plant. A non-ionic surfactant was added. Foliar tissue analysis was performed at 3 and 7 WAT on the non-applied newest leaves. The concentrations of N, P, K, Mg, Ca, B, Zn, Mn, Fe, and Cu in the foliar tissue were determined from foliar analysis by a commercial laboratory at 2 weeks before treatment and again at 2 weeks after treatment.
(§4) Deionized water was used for foliar applications, and other nutrients were applied as appropriate under non-limiting conditions. Marketable fruit were collected three times during the growing season, starting at 10 WAT (5 weeks after the initial treatment). Tomato fruit was graded as extra-large, large and medium. Non-marketable fruit were harvested and number and weight recorded but not sized.
(§5) Experimental design was a randomized complete block design with 6 replications. Data were analyzed using a general linear model, and means were separated using an LSD test at the 5% significance level.

Tygress tomato plants [2] = assay: Yields of tomato fruits, greenhouse (Examples 4-6)
Protocol: as §1, §2, §3, §4, §5

Tygress tomato plants [3] = assay: Foliar nutrient concentration at 6 WAT, open-field tomato (Examples 7-10); settings: 6 WAT, open field
Protocol: (§6) The following experiments were performed in open-field plots during the spring of 2008 at GCREC, Balm, University of Florida. Four products delivering Zn (BIOX-Z), Mn (BIOX-M), Cu (BIOX-Cu), and Fe (BIOX-Fe) were compared to other micronutrient supplement formulations in tomato and bell pepper plants.
(§7) The plot sizes for the tomato plants were 30-ft plots (15 plants per plot) and 15-ft plots were used for the bell pepper plants (30 plants per plot). Crop set-up, procedures and variables were as follows.
(§8) Transplants of ‘Tygress’ tomato plants and ‘Patriot’ bell pepper plants in the 4-true leaf stage (about 6 inches tall) were planted in raised beds in open-field plots. The cross-section of each raised bed was 28 inches wide at the top, 32 inches wide at the base, and 8 inches tall. Irrigation and non-micronutrient fertilizer were provided daily through two drip lines per bed (0.45 gal/100 ft bed/min) at recommended rates for tomato and bell pepper production in Florida. […] The height of the plants for each of the treatment groups was measured at 3 weeks after transplantation (WAT), just prior to treatment with the experimental foliar fertilizers.
(§9) All foliar fertilizers except BIOX-CM were applied to the various treatment groups at 3 weeks after transplantation (WAT) and again at 5 WAT. The BIOX-CM treatment was applied at 4 and 5 WAT. The working water volume was 60 gal/acre and a non-ionic surfactant (Ad-Spray 80) was added in the amount of 2 pints/100 gal water. All plots were sprayed with sprayers pressurized at 25 psi and the canopies of both crops were covered with the micronutrient solutions. Treated plots were isolated during foliar fertilizer application to avoid the cross-contamination of other treatments on adjoining plots.
(§10) Leaf samples were collected from the most recent mature leaves from each plant at 6 WAT (2 weeks after initial treatment). Foliar tissue analysis was performed by a commercial laboratory to determine the concentration of N, P, K, Mg, Ca, B, Zn, Mn, Fe, and Cu. Tomato marketable fruit weights were collected at 10 and 12 WAT, and the fruits were graded according to USDA standards. Pepper marketable fruit weights were determined beginning at 5 WAT over 5 weekly harvests. Fruit mineral analysis (N, P, K, Mg, Ca, B, Zn, Mn, Fe, and Cu) was performed on samples from the tomato harvest.
(§11) The experimental design was a randomized complete block design with 5 replications for each treatment. All comparison data were analyzed using a general linear model and the means of each treatment were separated with a Fisher's protected LSD test at the 5% significance level.

[4] = system: Patriot bell pepper plants; assay: Foliar nutrient concentration at 6 WAT, open-field bell pepper (Examples 7-10); settings: 6 WAT; open field; product rate as Table 17
Protocol: as §6, §7, §8, §9, §10, §11

Tygress tomato plants [5] = assay: Marketable yield, open-field tomato (Examples 7-10); settings: open field; lb/acre/season: BIOX-Z 1.3, Cu 6.7, M 23.0, Fe 3.2, INC 4.0, INZ 0.6, CM 10.0, GZ 1.0, GF 4.0, EDZ 1.4, EDM 23.0
Protocol: as §6, §7, §8, §9, §10, §11

[6] = system: Patriot bell pepper plants; assay: Marketable yield, open-field bell pepper (Examples 7-10); settings: open field; lb/acre/season: BIOX-Z 1.3, Cu 6.7, M 23.0, Fe 3.2, INC 4.0, INZ 0.6, CM 10.0, GZ 1.0, GF 4.0, EDZ 1.4, EDM 23.0
Protocol: as §6, §7, §8, §9, §10, §11

Tygress tomato plants [7] = assay: Nutrient concentration of tomato fruits at 10 WAT, open field (Examples 7-10); settings: 10 WAT, open field
Protocol: as §6, §7, §8, §9, §10, §11

## EDTA chelated manganese [BIOX-EDM]
Tygress tomato plants [1]; 2 weeks after Mn treatment
  B concentration in tomato leaves: 22 ppm
  Ca concentration in tomato leaves: 0.6%
  Cu concentration in tomato leaves: 5 ppm
  Fe concentration in tomato leaves: 115 ppm
  K concentration in tomato leaves: 3.3%
  Mg concentration in tomato leaves: 0.3%
  N concentration in tomato leaves: 3.3%
  P concentration in tomato leaves: 0.5%
  Zn concentration in tomato leaves: 32 ppm
Tygress tomato plants [1]; tomato leaves 2 weeks after Mn treatment
  Foliar Mn concentration: 78.5 a ppm
Tygress tomato plants [2]; BIOX-M at 1.23 lb/acre or more, BIOX-EDM at 2.0 lb/acre, Mn-sulfate at 1.0 lb/acre
  Marketable tomato yield compared with non-treated control (in words): significantly higher than the non-treated control
Tygress tomato plants [2]; Mn 2.0 lb/acre, tomato fruits
  Marketable yield: 4.4 a lb/plant
Tygress tomato plants [3]
  Foliar Zn concentration of tomato plants, statement: significant increase
  Foliar concentration of K of tomato plants compared to control, statement: significant increase
  Foliar concentration of Mn of tomato plants, statement: significant increase
  Foliar concentration of P of tomato plants compared to control, statement: significant decrease
Tygress tomato plants [3]; product rate as Table 17
  Foliar B concentration of tomato plants: 60 ppm
  Foliar Ca concentration of tomato plants: 2.2%
  Foliar Cu concentration of tomato plants: 409 ppm
  Foliar Fe concentration of tomato plants: 100 ppm
  Foliar K concentration of tomato plants: 6.2 a %
  Foliar Mg concentration of tomato plants: 0.82%
  Foliar Mn concentration of tomato plants: 348 b ppm
  Foliar N concentration of tomato plants: 4.9%
  Foliar P concentration of tomato plants: 0.22 ab %
  Foliar Zn concentration of tomato plants: 333 a ppm
[4]
  Foliar B concentration of bell pepper plants: 64 ppm
  Foliar Ca concentration of bell pepper plants: 4.4%
  Foliar Cu concentration of bell pepper plants: 411 ppm
  Foliar Fe concentration of bell pepper plants: 138 ppm
  Foliar K concentration of bell pepper plants: 3.6%
  Foliar Mg concentration of bell pepper plants: 0.52%
  Foliar Mn concentration of bell pepper plants: 563 ppm
  Foliar N concentration of bell pepper plants: 4.4%
  Foliar P concentration of bell pepper plants: 0.28%
  Foliar Zn concentration of bell pepper plants: 67 ppm
Tygress tomato plants [5]
  Marketable yield, Tomato: 14.6 b ton/acre
[6]
  Marketable yield, Bell Pepper: 7.6 ton/acre
Tygress tomato plants [7]
  Nutrient concentrations in tomato fruits, statement: significant increases in micronutrient concentrations of Zn, Mn, Fe, and Cu; also recorded: highest Mn concentration in the resulting tomato fruit
Tygress tomato plants [7]; product rate as Table 17
  B concentration of tomato fruits: 24 ppm
  Ca concentration of tomato fruits: 0.2%
  Cu concentration of tomato fruits: 27 a ppm
  Fe concentration of tomato fruits: 110 a ppm
  K concentration of tomato fruits: 8.6%
  Mg concentration of tomato fruits: 0.39%
  Mn concentration of tomato fruits: 60 a ppm
  N concentration of tomato fruits: 4.3%
  P concentration of tomato fruits: 0.63%
  Zn concentration of tomato fruits: 939 a ppm
